Assay results reported in patent EP0430883A2, “Anthelmintical compounds” (CIBA-GEIGY AG, priority 1989, dated 1991).

Experiments:
[1] = tested on: Cestoden wie Moniezia benedeni; assay: Test on sheep infected with cestodes (worm count at necropsy); assay type: in vivo, Schafe; settings: single dose of less than 20 mg/kg Körpergewicht, suspension by stomach tube or rumen injection, worms left in the gut counted 7-10 days after treatment vs untreated infected controls
Text: 3.2. Versuch an mit Cestoden wie Moniezia benedeni infizierten Schafen
(§1) Der Wirkstoff wird in Form einer Suspension mit einer Magensonde oder durch Pansen-Injektion Schafen verabreicht, die vorher mit Cestoden wie Moniezia benedeni artifiziell infiziert wurden. Pro Versuch resp. pro Dosis werden 3 Tiere verwendet. Jedes Schaf wird mit nur einer einzigen Dosis behandelt.
Sieben bis zehn Tage nach der Behandlung werden die Schafe getötet und seziert. Die Auswertung erfolgt durch Auszählung der nach der Behandlung im Darm zurückbleibenden Würmer. Gleichzeitig und gleichartig infizierte aber unbehandelte Schafe dienen als Kontrolle resp. Vergleich. In diesem Versuch bewirken Wirkstoffe aus den Tabellen, wie beispielsweise die Verbindungen Nr. 1.1, 5.1 und 5.2. bei Dosen von weniger als 20 mg/kg Körpergewicht eine ca. 90%ige Reduktion des Cestodenbefalls.

[2] = tested on: Nematoden wie Haemonchus contortus und Trichostrongylus colubriformis; assay: Test on sheep infected with nematodes (worm count at necropsy); assay type: in vivo, Schafe; settings: single dose of 20 mg Wirksubstanz pro kg Körpergewicht, suspension by stomach tube or rumen injection, worms left in the gut counted 7-10 days after treatment vs untreated infected controls
Text: 3.1. Versuch an mit Nematoden wie Haemonchus contortus und Trichostrongylus colubriformis infizierten Schafen
as §1, with “Nematoden” for “Cestoden”, “Haemonchus contortus und Trichostrongylus colubriformis künstlich” for “Moniezia benedeni artifiziell”, “werden 1 bis” for “werden”
Eine erste Evaluierung erfolgt dadurch, dass die Anzahl der vor und nach der Behandlung im Kot der Schafe ausgeschiedenen Wurmeier verglichen wird.
Sieben bis zehn Tage nach der Behandlung werden die Schafe getötet und seziert. Die Auswertung erfolgt durch Auszählung der nach der Behandlung im Darm zurückbleibenden Würmer. Gleichzeitig und gleichartig infizierte aber unbehandelte Schafe dienen als Kontrolle resp. Vergleich.
In diesem Test wird mit Verbindungen der Formeln I und la eine starke Reduzierung des Nematodenbefalls erzielt. So wird beispielsweise beim Einsatz von 20 mg Wirksubstanz pro kg Körpergewicht mit den nachfolgenden Verbindungen eine Reduzierung des Nematodenbefalls von ca. 90 % bewirkt: 1.1, 5.1 und 5.2. Dieses Ergebnis wird bei einzelnen Verbindungen auch noch mit weiter herabgesetzter Dosis, beispielsweise mit 10 mg Wirksubstanz pro kg Körpergewicht oder noch geringeren Mengen an Wirksubstanz, erreicht.

Which results are given for `CN1CN(C)C(=O)C(C(=O)Nc2ccc(Oc3nc4ccc(OC(F)(F)F)cc4s3)cc2)C1=O` [Verbindung 5.1, 1,3-Dimethyl-5-[4-(6-trifluormethoxy-benzthiazol-2-yloxy)-phenylcarbamoyl]-4,6-(1 H,3H,5H)-pyrimidindion]?
Reduktion des Cestodenbefalls [1]: ca. 90%; Reduzierung des Nematodenbefalls [2]: ca. 90%

For “1,3-Dimethyl-5-[4-(5-oder 7-Chlor-6-fluor-benzthiazol-2-yloxy)-phenylcarbamoyl]-4,6-(1 H,3H,5H)-pyrimidindion [Verbindung 5.2]”, which “Reduktion des Cestodenbefalls” value [1] is on record?
Its value is “ca. 90%”.

What about the “Reduzierung des Nematodenbefalls” value [2] of the same compound?
Its value is “ca. 90%”.

How did the “Reduktion des Cestodenbefalls” value [1] turn out when `Cn1c[n+](C)c(=O)c(C(=O)Nc2ccc(Oc3nc4ccc(OC(F)(F)F)cc4s3)cc2)c1[O-]` [Verbindung 1.1, 1,3-Dimethyl-5-[4-(6-trifluormethoxy-benzthiazol-2-yloxy)-phenylcarbamoyl]-4(6)-oxo-6-(4)-oxido-(1H,5H)-pyrimidiniumbetain] was run?
The value was “ca. 90%”.

What about the “Reduzierung des Nematodenbefalls” value [2] of the same compound?
Its value is “ca. 90%”.
